Laboratory results as given in US20210085640A1, “ACYLATED CATECHIN POLYPHENOLS AND METHODS OF THEIR USE FOR THE TREATMENT OF CANCER” (Flagship Pioneering Innovations V, Inc., priority 2018, published 2021).
pIC50: −log10 of the molar value.

Assays:
Format in all cases: cell-based
[1] = system: HCT 116 colorectal cancer cells; experiment: Cancer cell survival (CellTiter-Glo), HCT 116; conditions: Homo sapiens, HCT 116 cells, 72 h
Procedure, shortened: (§1)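 Luminescent ATP read-out (CellTiter-Glo) after 72 h compound exposure at 37 C/5% CO2. Survival % is calculated against untreated cells minus medium background, and IC50 is taken from nine concentrations run in triplicate. Plating density was 4×10^3 cells/well with overnight attachment beforehand.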

[2] = system: T24 bladder cancer cells; experiment: Cancer cell survival (CellTiter-Glo), T24; conditions: Homo sapiens
Procedure, shortened: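 Viability by CellTiter-Glo after 72 h compound treatment of T24 bladder cancer cells (4×10^3/well, plated the night before), nine concentration levels in triplicate. Percent survival normalised to untreated cells minus medium background, from which IC50 was determined.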

[3] = system: AGS stomach cancer cells; experiment: Cancer cell survival (CellTiter-Glo), AGS; conditions: 72 h
Procedure, shortened: as §1

[4] = system: A-431 skin cancer cells; experiment: Cancer cell survival (CellTiter-Glo), A-431; conditions: Homo sapiens, A-431 cells, 72 h
Procedure, shortened: as §1

[5] = system: A549 lung cancer cells; experiment: Cancer cell survival (CellTiter-Glo), A549; conditions: Homo sapiens, 72 h, read-out: Cell survival at given concentration
Procedure, shortened: as §1

[6] = system: PC-3 prostate cancer cells; experiment: Cancer cell survival (CellTiter-Glo), PC-3; conditions: Homo sapiens, PC-3 cells, 72 h, read-out: Cell survival at given concentration
Procedure, shortened: as §1

[7] = system: Daudi lymphoma cancer cells; experiment: Cancer cell survival (CellTiter-Glo), Daudi; conditions: Homo sapiens, 72 h
Procedure, shortened: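 Daudi cells (4×10^3/well) were exposed for 72 h at 37 °C to nine concentrations of compound, added as 10× solutions spanning 1 μM–10 mM (fatty acids) or 100 nM–1 mM (others). CellTiter-Glo luminescence gave % survival versus untreated, medium-blank corrected; IC50 derived.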

[8] = system: MCF7 breast cancer cells; experiment: Cancer cell survival (CellTiter-Glo), MCF7; conditions: Homo sapiens, 72 h, read-out: Cell survival at given concentration
Procedure, shortened: as §1

[9] = 101 nM, read-out: Cell survival at given concentration
[10] = 318 nM, read-out: Cell survival at given concentration
[11] = 1 μM, read-out: Cell survival at given concentration
[12] = 3 μM, read-out: Cell survival at given concentration
[13] = 10 μM, read-out: Cell survival at given concentration
[14] = 32 μM, read-out: Cell survival at given concentration
[15] = 100 μM, read-out: Cell survival at given concentration
[16] = 316 μM, read-out: Cell survival at given concentration
[17] = 1000 μM, read-out: Cell survival at given concentration

For `O=c1cc(-c2ccc(O)cc2)oc2cc(O)cc(O)c12` [apigenin], the viability at 0.101 µM [1, 9] was 99%, the viability at 0.318 µM [1, 10] was 100% and the viability at 1 µM [1, 11] was 100%. The viability at 3 µM [1, 12] was 99%, the viability at 10 µM [1, 13] was 98% and the viability at 32 µM [1, 14] was 60%. The viability at 100 µM [1, 15] was 32%, the viability at 316 µM [1, 16] was 19% and the viability at 1000 µM [1, 17] was 15%. For the same compound, the pIC50 ([1]; Table 6.1) was 4.34, the viability at 0.101 µM ([2]; T-24, 101 nM, 72 h, read-out: Cell survival at given concentration) was 98% and the viability at 0.318 µM ([2]; T-24, 318 nM, 72 h, read-out: Cell survival at given concentration) was 100%. It also gave a viability at 1 µM ([2]; T-24, 1 μM, 72 h, read-out: Cell survival at given concentration) of 102%, a viability at 3 µM ([2]; T-24, 3 μM, 72 h, read-out: Cell survival at given concentration) of 105% and a viability at 10 µM ([2]; T-24, 10 μM, 72 h, read-out: Cell survival at given concentration) of 98%. It also gave a viability at 32 µM ([2]; T-24, 32 μM, 72 h, read-out: Cell survival at given concentration) of 79%, a viability at 100 µM ([2]; T-24, 100 μM, 72 h, read-out: Cell survival at given concentration) of 60% and a viability at 316 µM ([2]; T-24, 316 μM, 72 h, read-out: Cell survival at given concentration) of 42%. For the same compound, the viability at 1000 µM ([2]; T-24, 1000 μM, 72 h, read-out: Cell survival at given concentration) was 32%, the pIC50 ([2]; T-24, 72 h, Table 3.1, read-out: 1050) was 3.79 and the viability at 0.101 µM [3, 9] was 99%. For the same compound, the viability at 0.318 µM [3, 10] was 102%, the viability at 1 µM ([3]; 1 μM, Table 10.1, read-out: Cell survival at given concentration) was 104% and the viability at 3 µM ([3]; 3 μM, Table 10.1, read-out: Cell survival at given concentration) was 101%. For the same compound, the viability at 10 µM ([3]; 10 μM, Table 10.1, read-out: Cell survival at given concentration) was 106%, the viability at 32 µM ([3]; 32 μM, Table 10.1, read-out: Cell survival at given concentration) was 102% and the viability at 100 µM ([3]; 100 μM, Table 10.1, read-out: Cell survival at given concentration) was 89%. It also gave a viability at 316 µM [3, 16] of 71%, a viability at 1000 µM [3, 17] of 64% and a viability at 0.101 µM [4, 9] of 101%. It also gave a viability at 0.318 µM [4, 10] of 100%, a viability at 1 µM [4, 11] of 100% and a viability at 3 µM [4, 12] of 102%. The viability at 10 µM [4, 13] was 100%, the viability at 32 µM [4, 14] was 83% and the viability at 100 µM [4, 15] was 58%. For the same compound, the viability at 316 µM [4, 16] was 47%, the viability at 1000 µM [4, 17] was 45% and the pIC50 ([4]; Table 9.1) was 3.75. It also gave a viability at 0.101 µM ([5]; 101 nM) of 101%, a viability at 0.318 µM ([5]; 318 nM) of 102% and a viability at 1 µM ([5]; 1 μM) of 102%. The viability at 3 µM ([5]; 3 μM) was 98%, the viability at 10 µM ([5]; 10 μM) was 102% and the viability at 32 µM ([5]; 32 μM) was 100%. It also gave a viability at 100 µM ([5]; 100 μM) of 82%, a viability at 316 µM ([5]; 316 μM) of 67% and a viability at 1000 µM ([5]; 1000 μM) of 62%. It also gave a viability at 0.101 µM ([6]; 101 nM) of 100%, a viability at 0.318 µM ([6]; 318 nM) of 100% and a viability at 1 µM ([6]; 1 μM) of 98%. It also gave a viability at 3 µM ([6]; 3 μM) of 102%, a viability at 10 µM ([6]; 10 μM) of 107% and a viability at 32 µM ([6]; 32 μM) of 98%. The viability at 100 µM ([6]; 100 μM) was 82%, the viability at 316 µM ([6]; 316 μM) was 72% and the viability at 1000 µM ([6]; 1000 μM) was 70%. For the same compound, the viability at 0.101 µM [7, 9] was 97%, the viability at 0.318 µM [7, 10] was 96% and the viability at 1 µM [7, 11] was 101%. It also gave a viability at 3 µM [7, 12] of 101%, a viability at 10 µM [7, 13] of 103% and a viability at 32 µM [7, 14] of 86%. The viability at 100 µM [7, 15] was 60%, the viability at 316 µM [7, 16] was 47% and the viability at 1000 µM [7, 17] was 44%. It also gave a pIC50 ([7]; Table 4.1) of 3.73, a viability at 0.101 µM ([8]; 101 nM) of 98% and a viability at 0.318 µM ([8]; 318 nM) of 99%. It also gave a viability at 1 µM ([8]; 1 μM) of 98%, a viability at 3 µM ([8]; 3 μM) of 100% and a viability at 10 µM ([8]; 10 μM) of 102%. For the same compound, the viability at 32 µM ([8]; 32 μM) was 89%, the viability at 100 µM ([8]; 100 μM) was 82% and the viability at 316 µM ([8]; 316 μM) was 76%. The viability at 1000 µM ([8]; 1000 μM) was 73%.
